Reference: ChEMBL document CHEMBL1147698, “Design of a potent, soluble glucokinase activator with excellent in vivo efficacy” (Bioorg Med Chem Lett, 2006)
≈ marks a conversion by molar mass, not a printed value.

Columns and labels:
[1] = Percent of unbound ligand in rat plasma; format: ADME, organism-based
Hexokinase-4 = target: T1, Hexokinase-4 (Homo sapiens, UniProt P35557)
T1 sequence (P35557 whole entry): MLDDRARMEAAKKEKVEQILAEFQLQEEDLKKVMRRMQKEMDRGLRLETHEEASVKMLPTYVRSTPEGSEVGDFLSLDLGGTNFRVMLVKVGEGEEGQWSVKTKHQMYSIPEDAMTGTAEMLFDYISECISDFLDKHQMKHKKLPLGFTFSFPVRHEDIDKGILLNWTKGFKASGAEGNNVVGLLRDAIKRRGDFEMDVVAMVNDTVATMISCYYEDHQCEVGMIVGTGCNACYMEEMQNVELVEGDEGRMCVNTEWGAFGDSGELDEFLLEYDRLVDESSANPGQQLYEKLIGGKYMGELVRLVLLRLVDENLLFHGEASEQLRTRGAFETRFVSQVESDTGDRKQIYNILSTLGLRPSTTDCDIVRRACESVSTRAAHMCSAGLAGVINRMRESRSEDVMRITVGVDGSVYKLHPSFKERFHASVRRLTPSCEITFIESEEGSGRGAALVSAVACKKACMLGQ
Description: Activation of glucokinase

[2] = Intrinsic clearance in rat per 10^6 cells; format: ADME
Rattus norvegicus [3] = organism: Rattus norvegicus; assay: Unbound clearance in rat; format: ADME, organism-based; settings: in vivo
[4] = Clearance in dog; format: ADME, organism-based, Canis lupus familiaris; settings: in vivo
Canis familiaris [5] = organism: Canis familiaris; assay: Hepatic blood flow in dog; format: ADME, organism-based, Canis lupus familiaris, Liver
[6] = Intrinsic clearance in dog per 10^6 cells; format: ADME, Canis lupus familiaris; settings: not recorded
Rattus norvegicus [7] = organism: Rattus norvegicus; assay: Hepatic blood flow in rat; format: ADME, organism-based, Liver
[8] = Percent of unbound ligand in dog plasma; format: ADME, organism-based, Canis lupus familiaris
Canis familiaris [9] = organism: Canis familiaris; assay: Clearance in dog measured as percent of hepatic blood flow; format: ADME, organism-based, Canis lupus familiaris, Liver; settings: in vivo
Rattus norvegicus [10] = organism: Rattus norvegicus; assay: Clearance in rat measured as percent of hepatic blood flow; format: ADME, organism-based, Liver; settings: in vivo
Canis familiaris [11] = organism: Canis familiaris; assay: Unbound clearance in dog; format: ADME, organism-based, Canis lupus familiaris; settings: in vivo
[12] = Clearance in rat; format: ADME, organism-based; settings: in vivo
[13] = Solubility of the compound; format: physicochemical
Rattus norvegicus [14] = assay: Decrease in glucose level in Zucker rat at 1 mg/kg, po by oral glucose tolerance test; format: ADME, organism-based; design: dose 1 mg/kg, route oral; settings: in vivo
[15] = Bioavailability in rat; format: ADME, organism-based; settings: in vivo
Rattus norvegicus [16] = organism: Rattus norvegicus; assay: Decrease in glucose level in Zucker rat by oral glucose tolerance test; format: ADME, organism-based; settings: in vivo
[17] = Bioavailability in dog; format: ADME, organism-based, Canis lupus familiaris; settings: in vivo
Rattus norvegicus [18] = assay: Decrease in glucose level in Zucker rat at 3 mg/kg, po by oral glucose tolerance test; format: ADME, organism-based; design: dose 3 mg/kg, route oral; settings: in vivo

Row | SMILES | fraction unbound [1] | EC50 (Hexokinase-4) | hepatocyte CLint [2] | CL/F (Rattus norvegicus [3]) | solubility [13] | bioavailability [15] | further results
1 | COC[C@@H](C)Oc1cc(OC(C)C)cc(C(=O)Nc2ccc(C(=O)O)cn2)c1 | 0.0622 | 5510 nM | – | – | – | – | –
2 | CC(C)Oc1cc(O[C@@H](C)c2ccccc2)cc(C(=O)Nc2ccc(C(=O)O)cn2)c1 | – | 110 nM | < 1 µL/min/1e6 cells | 171 mL/min/kg | – | – | –
3 | CC(C)Oc1cc(OCCc2ccsc2)cc(C(=O)Nc2ccc(C(=O)O)cn2)c1 | 0.0026 | – | < 1 µL/min/1e6 cells | 1461 mL/min/kg | – | – | clearance [4]: 8.7 mL/min/kg; Activity (Canis familiaris [5]): 31 mL/min/kg; hepatocyte CLint [6]: < 1 µL/min/1e6 cells; Activity (Rattus norvegicus [7]): 72 mL/min/kg; fraction unbound [8]: 0.0064; %LBF (Canis familiaris [9]): 28%; %LBF (Rattus norvegicus [10]): 5.3%; CL/F (Canis familiaris [11]): 1359 mL/min/kg
4 | CC(C)Oc1cc(O[C@H](C)Cc2ccccc2)cc(C(=O)Nc2ccc(C(=O)O)cn2)c1 | 0.0023 | 90 nM | – | – | – | – | –
5 | CC(C)Oc1cc(OCc2ccccc2)cc(C(=O)Nc2ccc(C(=O)O)cn2)c1 | 0.002 | – | < 1 µL/min/1e6 cells | 1850 mL/min/kg | – | – | clearance [12]: 3.7 mL/min/kg
6 | COC[C@H](C)Oc1cc(OC(C)C)cc(C(=O)Nc2ccc(C(=O)O)cn2)c1 | 0.0534 | 610 nM | – | 43 mL/min/kg | > 3140 µM | 100% | clearance [12]: 2.3 mL/min/kg; Activity (Rattus norvegicus [14]): Active
7 | COC[C@H](C)Oc1cc(O[C@@H](C)Cc2ccccc2)cc(C(=O)Nc2ccc(C(=O)O)cn2)c1 | – | – | – | 475 mL/min/kg | 1350 µM (≈ 627 µg/mL) | 99% | clearance [4]: 4.4 mL/min/kg; hepatocyte CLint [6]: < 1 µL/min/1e6 cells; Activity (Rattus norvegicus [16]): Dose-dependent effect; bioavailability [17]: 100%; CL/F (Canis familiaris [11]): 301 mL/min/kg
8 | CC(C)Oc1cc(O[C@@H](C)Cc2ccccc2)cc(C(=O)Nc2ccc(C(=O)O)cn2)c1 | – | 20 nM | – | 1435 mL/min/kg | 8 µM (≈ 3.48 µg/mL) | 85% | Activity (Rattus norvegicus [18]): Active
9 | CC(C)Oc1cc(O[C@H](C)c2ccccc2)cc(C(=O)Nc2ccc(C(=O)O)cn2)c1 | 0.0048 | 950 nM | – | – | – | – | –
